Reference: US12516049B2, “Sulfonylurea ring substituted monocyclic β-lactam antibiotics” (priority 2019, dated 2026)
Values after ≈ are worked out from the molar mass of the structure shown.

How the values were obtained:
E.coli 115101 = test: MIC, two-fold agar dilution, clinical isolate; format: cell-based; conditions: Escherichia coli; E.coli 115101; single drug; average of three tests; read-out: MIC
Procedure: (§1) The minimum inhibitory concentration (MIC) of the compound and combination with β-lactamase (MBLs) inhibitors against clinically isolated carbapenem-resistant enterobacteriaceae was determined by the two-fold agar dilution method to determine the activity of the compound to be tested against strains producing MBLs. […] The mother liquor was diluted to the concentration to be tested by double dilution method, an inoculum liquid was prepared by direct bacterial suspension method, 1 mL of the prepared bacteria solution was withdrawn and putted into the inoculation tube, and a positioning needle and an inoculation needle were installed. A bacterial multi-point inoculator was started for inoculation. After the bacterial solution was absorbed by the agar, the plate was placed upside down in an incubator at 37° C. for 16-20 hours, and the results were observed. The average of three tests was taken.

K.p HX30 = test: MIC, two-fold agar dilution, clinical isolate; format: cell-based; conditions: K.p HX30; single drug; average of three tests; read-out: MIC
Procedure: as §1

E.coli 115105 = test: MIC, two-fold agar dilution, clinical isolate; format: cell-based; conditions: Escherichia coli, single drug, average of three tests
Procedure: as §1

E.coli CRE23 = test: MIC, two-fold agar dilution, clinical isolate; format: cell-based; conditions: Escherichia coli; E.coli CRE23; single drug; average of three tests; read-out: MIC
Procedure: The minimum inhibitory concentration (MIC) of the compound and combination with β-lactamase (MBLs) inhibitors against clinically isolated carbapenem-resistant enterobacteriaceae was determined by the two-fold agar dilution method to determine the activity of the compound to be tested against strains producing MBLs. Antibiotics and enzyme inhibitors were weighed separately and dissolved in sterile ultrapure water or dimethyl sulfoxide to prepare mother liquor, MHA medium was prepared, pH was adjusted to 7.2-7.4, and it was sterilized at 121° C. for 15 minutes and placed in a 55° C. water bath for heat preservation. The mother liquor was diluted to the concentration to be tested by double dilution method, an inoculum liquid was prepared by direct bacterial suspension method, 1 mL of the prepared bacteria solution was withdrawn and putted into the inoculation tube, and a positioning needle and an inoculation needle were installed. A bacterial multi-point inoculator was started for inoculation. After the bacterial solution was absorbed by the agar, the plate was placed upside down in an incubator at 37° C. for 16-20 hours, and the results were observed. The average of three tests was taken.

[1] = system: Klebsiella pneumonia ATCC BAA-205 (TEM-1/SHV-1/SHV-12); test: MIC, micro-liquid dilution (CLSI); format: cell-based; conditions: Klebsiella pneumoniae, ATCCBAA205; K. pneumonia ATCC BAA-205, Class A (TEM-1/SHV-1/SHV-12); 20-24 h, 37° C.
Procedure: (§2) Three strains of Klebsiella pneumonia, ATCC BAA-205 (TEM-1/SHV-1/SHV-12), ATCC BAA-1705 (KPC-2), ATCC BAA-2470 (NDM-1), Enterobacter cloacae ATCC BAA-1143 (AmpC), two strains of Escherichia coli ATCC BAA-2523 (OXA-48), ATCC 25922 were used to determine the minimum inhibitory concentration (MIC) of each of the compounds by micro-liquid dilution method according to the Institute of Clinical and Laboratory Standard (CLSI) requirements. […]. The plate was placed upside down at 37° C. and the MIC value was read after 20-24 h of incubation, and the lowest drug concentration that inhibited the growth of bacteria was set as MIC. Colony-Forming Units (CFU) refer to the total number of bacterial colonies per unit volume.

[2] = system: Enterobacter cloacae ATCC BAA-1143 (AmpC); test: MIC, micro-liquid dilution (CLSI); format: cell-based; conditions: ATCCBAA1143, E. cloacae ATCC BAA-1143, Class C (AmpC), 20-24 h, 37° C.
Procedure: as §2

[3] = system: Escherichia coli ATCC BAA-2523 (OXA-48); test: MIC, micro-liquid dilution (CLSI); format: cell-based; conditions: ATCCBAA2523
Procedure: as §2

[4] = system: Klebsiella pneumonia ATCC BAA-1705 (KPC-2); test: MIC, micro-liquid dilution (CLSI); format: cell-based; conditions: Klebsiella pneumoniae, ATCCBAA1705; K. pneumonia ATCC BAA-1705, Class A (KPC-2); 20-24 h, 37° C.
Procedure: as §2

[5] = system: Klebsiella pneumonia ATCC BAA-2470 (NDM-1); test: MIC, micro-liquid dilution (CLSI); format: cell-based; conditions: Klebsiella pneumoniae, ATCCBAA2470; K. pneumonia ATCC BAA-2470, Class B (NDM-1); 20-24 h, 37° C.
Procedure: as §2

[6] = system: Escherichia coli ATCC 25922; test: MIC, micro-liquid dilution (CLSI); format: cell-based; conditions: ATCC25922, E. coli ATCC 25922, 20-24 h, 37° C.
Procedure: as §2

[7] = system: Klebsiella pneumoniae ATCC-BAA 2470; test: Mouse thigh muscle infection model, Klebsiella pneumoniae ATCC-BAA 2470; format: in vivo; conditions: immunodeficient female CD-1 mice; Klebsiella pneumoniae ATCC-BAA 2470 9.5E+06 CFU/mouse; 200 mg/kg every 2 h from 2 h; end point 24 h
Procedure: 15 female CD-1 mice were divided into 5 cages, 3 mice per cage; the day of infection was counted as day 0.
Immunosuppressant cyclophosphamide 150 mg/kg were injected intraperitoneally on Day-4, and immunosuppressant cyclophosphamide 100 mg/kg was injected intraperitoneally again on the first day to obtain immunodeficient mice.
The strain Klebsiella pneumoniae ATCC-BAA 2470 was recovered on an MHA plate on the first day. The recovered colonies were picked and dissolved in sterile saline to prepare bacterial solution with a concentration of 9.5E+07 CFU/mL for use in mouse thigh muscle infection. The infection starting time was counted as 0 h, and 100 μL of bacterial solution is injected into the thigh muscle of each mouse at 0 h, that is, the inoculation amount is 9.5E+06 CFU/mouse. 2 h after infection, the drugs were administered according to the experimental scheme. The specific experimental scheme is as follows (see Table 5): […]
(2) 2 h after infection: Mice in the second to third cages were administered separately at a volume of 10 mL/kg according to the mouse body weight. […] The amount of bacteria loaded in the thigh muscle tissue of the mouse was counted, and the experimental results were shown in Table 6.

[8] = system: clinically isolated carbapenem-resistant enterobacteriaceae; format: cell-based; conditions: single drug; panel of 26 strains of Table 2
Procedure: as §1

## NC[C@@H]1CN(C[C@@H]2[C@H](NC(=O)/C(=N\OC3(C(=O)O)CC3)c3csc(N)n3)C(=O)N2S(=O)(=O)O)S(=O)(=O)N1 [Compound 4]
E.coli 115101
  MIC: 0.5 µg/mL
K.p HX30
  MIC: 0.5 µg/mL
E.coli 115105
  MIC: 1 µg/mL
E.coli CRE23
  MIC: 1 µg/mL
[1]
  MIC: 0.5 µg/mL (≈ 0.858 µM)
[2]
  MIC: 0.5 µg/mL (≈ 0.858 µM)
[3]
  MIC: 0.125 µg/mL (≈ 0.215 µM)
[4]
  MIC: 1 µg/mL (≈ 1.72 µM)
[5]
  MIC: 0.25 µg/mL (≈ 0.429 µM)
[6]
  MIC: 0.25 µg/mL (≈ 0.429 µM)
[7]
  Average CFU of the mouse (amount of bacteria loaded in thigh muscle tissue): 3.93E+06 CFU/mouse
[8]
  MIC50: 0.125 µg/mL
  MIC90: 1 µg/mL
